Data as given in ChEMBL document CHEMBL3885881, “DrugMatrix”.

Organism: Rattus norvegicus
Experiment: DrugMatrix - Regimen: Daily Repeat
Assay type: toxicity, organism-based, Sprague-Dawley
Design: regimen Daily Repeat, gender Male, age 6-8 weeks
Details: in vivo, po, route oral GAVAGE, […]; for ABSOLUTE BASOPHIL / ABSOLUTE EOSINOPHIL / ABSOLUTE LYMPHOCYTE / ABSOLUTE MONOCYTE / ABSOLUTE SEGMENTED NEUTROPHIL / BASOPHIL / EOSINOPHIL / ERYTHROCYTE COUNT / HEMATOCRIT / HEMOGLOBIN / LEUKOCYTE COUNT / LYMPHOCYTE / MEAN CORPUSCULAR HEMOGLOBIN / MEAN CORPUSCULAR HEMOGLOBIN CONCENTRATION / MEAN CORPUSCULAR VOLUME / MONOCYTE / NEUTROPHIL / NUCLEATED RED BLOOD CELLS / PLATELET COUNT: tissue Blood; for ALANINE AMINOTRANSFERASE / ALBUMIN / ALKALINE PHOSPHATASE / ASPARTATE AMINOTRANSFERASE / BLOOD UREA NITROGEN / CARBON DIOXIDE / CHLORIDE / CHOLESTEROL / CREATINE PHOSPHOKINASE / CREATININE / GLUCOSE / LACTATE DEHYDROGENASE / LIPASE / PHOSPHORUS / POTASSIUM / SODIUM / TOTAL BILIRUBIN / TOTAL PROTEIN / URIC ACID: tissue Plasma
[1] = 100 mg/kg, 120 h, dose level Low, time 5 day
[2] = 972 mg/kg, 72 h, dose level High, time 3 day
[3] = 972 mg/kg, 120 h, dose level High, time 5 day

## CC(=O)Nc1ccc(O)cc1 [ACETAMINOPHEN]
[1]
  ABSOLUTE BASOPHIL: 0 CELLS/uL
  ABSOLUTE EOSINOPHIL: 65 CELLS/uL
  ABSOLUTE LYMPHOCYTE: 8879.67 CELLS/uL
  ABSOLUTE MONOCYTE: 40.33 CELLS/uL
  ABSOLUTE SEGMENTED NEUTROPHIL: 548.33 CELLS/uL
  BASOPHIL: 0%
  EOSINOPHIL: 0.67%
  ERYTHROCYTE COUNT: 5.47 x10E6/uL
  HEMATOCRIT: 34.53%
  HEMOGLOBIN: 13.27 G/DL
  LEUKOCYTE COUNT: 9.53 x10E3/uL
  LYMPHOCYTE: 93.67%
  MEAN CORPUSCULAR HEMOGLOBIN: 24.27 pg
  MEAN CORPUSCULAR HEMOGLOBIN CONCENTRATION: 38.43 G/DL
  MEAN CORPUSCULAR VOLUME: 63.13 fL
  MONOCYTE: 0.33%
  NEUTROPHIL: 5.33%
  NUCLEATED RED BLOOD CELLS: 0 /100WBC
  PLATELET COUNT: 1237.33 x10E3/uL
  ALANINE AMINOTRANSFERASE: 58.33 u/L
  ALBUMIN: 4.3 G/DL
  ALKALINE PHOSPHATASE: 341.67 u/L
  ASPARTATE AMINOTRANSFERASE: 84 u/L
  BLOOD UREA NITROGEN: 14 mg/dL
  CARBON DIOXIDE: 27.33 mmol/L
  CHLORIDE: 98.33 MEQ/L
  CHOLESTEROL: 81.33 mg/dL
  CREATINE PHOSPHOKINASE: 273 u/L
  CREATININE: 0.18 mg/dL
  GLUCOSE: 158.67 mg/dL
  LACTATE DEHYDROGENASE: 79.67 u/L
  LIPASE: 10 u/L
  PHOSPHORUS: 9.17 mg/dL
  POTASSIUM: 5.75 MEQ/L
  SODIUM: 143.87 MEQ/L
  TOTAL BILIRUBIN: 0.23 mg/dL
  TOTAL PROTEIN: 6.27 G/DL
  URIC ACID: 0.77 mg/dL
[2]
  ABSOLUTE BASOPHIL: 0 CELLS/uL
  ABSOLUTE EOSINOPHIL: 0 CELLS/uL
  ABSOLUTE LYMPHOCYTE: 8609 CELLS/uL
  ABSOLUTE MONOCYTE: 158.2 CELLS/uL
  ABSOLUTE SEGMENTED NEUTROPHIL: 1212.8 CELLS/uL
  BASOPHIL: 0%
  EOSINOPHIL: 0%
  ERYTHROCYTE COUNT: 5.94 x10E6/uL
  HEMATOCRIT: 36.4%
  HEMOGLOBIN: 13.62 G/DL
  LEUKOCYTE COUNT: 9.98 x10E3/uL
  LYMPHOCYTE: 85.6%
  MEAN CORPUSCULAR HEMOGLOBIN: 22.9 pg
  MEAN CORPUSCULAR HEMOGLOBIN CONCENTRATION: 37.44 G/DL
  MEAN CORPUSCULAR VOLUME: 61.28 fL
  MONOCYTE: 2%
  NEUTROPHIL: 12.4%
  NUCLEATED RED BLOOD CELLS: 0 /100WBC
  PLATELET COUNT: 1006.4 x10E3/uL
  ALANINE AMINOTRANSFERASE: 85 u/L
  ALBUMIN: 4.4 G/DL
  ALKALINE PHOSPHATASE: 536.6 u/L
  ASPARTATE AMINOTRANSFERASE: 123.8 u/L
  BLOOD UREA NITROGEN: 14 mg/dL
  CARBON DIOXIDE: 31.2 mmol/L
  CHLORIDE: 99.67 MEQ/L
  CHOLESTEROL: 76.2 mg/dL
  CREATINE PHOSPHOKINASE: 298.8 u/L
  CREATININE: 0.19 mg/dL
  GLUCOSE: 161 mg/dL
  LACTATE DEHYDROGENASE: 128 u/L
  LIPASE: 10.8 u/L
  PHOSPHORUS: 10.82 mg/dL
  POTASSIUM: 5.81 MEQ/L
  SODIUM: 143.6 MEQ/L
  TOTAL BILIRUBIN: 0.14 mg/dL
  TOTAL PROTEIN: 6.04 G/DL
  URIC ACID: 0.68 mg/dL
[3]
  ABSOLUTE BASOPHIL: 0 CELLS/uL
  ABSOLUTE EOSINOPHIL: 17.8 CELLS/uL
  ABSOLUTE LYMPHOCYTE: 10212.2 CELLS/uL
  ABSOLUTE MONOCYTE: 135.4 CELLS/uL
  ABSOLUTE SEGMENTED NEUTROPHIL: 1674.6 CELLS/uL
  BASOPHIL: 0%
  EOSINOPHIL: 0.2%
  ERYTHROCYTE COUNT: 6.63 x10E6/uL
  HEMATOCRIT: 40.4%
  HEMOGLOBIN: 14.86 G/DL
  LEUKOCYTE COUNT: 12.04 x10E3/uL
  LYMPHOCYTE: 85.2%
  MEAN CORPUSCULAR HEMOGLOBIN: 22.46 pg
  MEAN CORPUSCULAR HEMOGLOBIN CONCENTRATION: 36.82 G/DL
  MEAN CORPUSCULAR VOLUME: 61 fL
  MONOCYTE: 1.2%
  NEUTROPHIL: 13.4%
  NUCLEATED RED BLOOD CELLS: 0 /100WBC
  PLATELET COUNT: 1437.6 x10E3/uL
  ALANINE AMINOTRANSFERASE: 100 u/L
  ALBUMIN: 4.46 G/DL
  ALKALINE PHOSPHATASE: 485.6 u/L
  ASPARTATE AMINOTRANSFERASE: 108.4 u/L
  BLOOD UREA NITROGEN: 14.2 mg/dL
  CARBON DIOXIDE: 29 mmol/L
  CHLORIDE: 104 MEQ/L
  CHOLESTEROL: 71.6 mg/dL
  CREATINE PHOSPHOKINASE: 328.8 u/L
  CREATININE: 0.17 mg/dL
  GLUCOSE: 154 mg/dL
  LACTATE DEHYDROGENASE: 199.2 u/L
  LIPASE: 9.8 u/L
  PHOSPHORUS: 13.5 mg/dL
  POTASSIUM: 6.73 MEQ/L
  SODIUM: 144.74 MEQ/L
  TOTAL BILIRUBIN: 0.22 mg/dL
  TOTAL PROTEIN: 6.42 G/DL
  URIC ACID: 3.3 mg/dL
